Reference: PMC6321646, “Evaluation of the Novel Synthetic Tyrosinase Inhibitor (Z)-3-(3-bromo-4-hydroxybenzylidene)thiochroman-4-one (MHY1498) In Vitro and In Silico” (Molecules, 2018)

Target: T1, mushroom tyrosinase (Agaricus bisporus, UniProt C7FF04)
T1 construct: gene PPO3
Test: dopachrome formation at […] nm, % inhibition at […]
Type: biochemical
Conditions: read-out: 50μM / Mean ± SD (%)

T1 sequence (C7FF04 2-392): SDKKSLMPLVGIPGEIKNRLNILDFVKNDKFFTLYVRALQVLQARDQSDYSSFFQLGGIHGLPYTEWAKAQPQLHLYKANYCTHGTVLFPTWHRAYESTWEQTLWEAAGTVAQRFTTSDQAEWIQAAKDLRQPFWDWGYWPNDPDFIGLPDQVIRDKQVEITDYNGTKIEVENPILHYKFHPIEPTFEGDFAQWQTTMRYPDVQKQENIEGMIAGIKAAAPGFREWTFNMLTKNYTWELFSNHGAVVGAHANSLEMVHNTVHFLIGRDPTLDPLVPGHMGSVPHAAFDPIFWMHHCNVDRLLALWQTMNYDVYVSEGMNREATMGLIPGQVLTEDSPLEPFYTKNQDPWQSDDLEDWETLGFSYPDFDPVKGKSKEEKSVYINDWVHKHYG

O=C1/C(=C/c2ccc(O)cc2)CSc2ccccc21 [a]
inhibition at 50 µM: 81.6 ± 1%

COc1ccc(/C=C2\CSc3ccccc3C2=O)cc1O [d]
inhibition at 50 µM: 91.5 ± 6.2%
